# From US12680081B2, “Human induced pluripotent stem cell line transformed with fluorescent protein-labeled cytochrome P450 and AHR modulator screening method using same” (priority 2020, dated 2026)
# Structures can show the parent of a compound that is named as a salt.
# Tests used:
# CYP1A1 mRNA = tested on: CYP1A1 mRNA
# Procedure: 8. Quantitative Reverse Transcription PCR (RT-qPCR)
# Total RNA was extracted from each sample using NucleoZOL reagent (Macherey-Nagel, Duren, Germany) and reverse transcription was performed using GoScript™ reverse transcription mix (Promega) according to the manufacturer's protocol. RT-qPCR was performed with SYBR Green Realtime PCR Master Mix (TOYOBO, Osaka, Japan) in StepOnePlus Real-Time PCR system (Applied Biosystems, Foster City, Calif., USA). PCR amplification was performed in triplicate for each sample. PCR results were expressed as relative fold change compared to the control cells after normalization with glyceraldehyde-3-phosphate dehydrogenase (GAPDH). The ΔCt (SΔCt) value was calculated as the difference between the Ct value obtained for GAPDH and the target gene. The ΔCt value of the control cells was used as the control ΔCt (CΔCt) value. The relative gene expression level was determined using the following formula: 2−(SΔCt−CΔCt).
# After preparing cells for RNA extraction, RT-qPCR analysis for the expression of CYP1A1 mRNA was performed according to the above procedure. Dose-response curves were created by the least squares fitting method using GraphPad Prism 5 (GraphPad, San Diego, Calif., USA).
# AHR-CYP1A1 axis = test: High-content screening (HCS) of mCherry intensity in live CYP1A1-mCherry HLCs; conditions: for inhibition of the effect of TCDD on mCherry expression: human
# Procedure: 9. Chemical Treatment and High-Content Screening (HCS)
# To perform HCS, the cells differentiated for 10 days were dissociated, plated in a Matrigel®-coated 96-well plate, and cultured for maturation. […] DMSO was used as a vehicle control. For staining the live cell nucleus, cells were cultured with 2 μg/ml of Hoechst 33342 (Life Technologies) for 10 minutes. Stained cells were imaged using ImageXpress Micro XLS Widefield High-Content Analysis System (Molecular Devices, San Jose, Calif., USA). The acquired images were analyzed using MetaXpress High-Content Image Acquisition and Analysis Software (Molecular Devices) according to disclosed methods. For analysis, cells were first identified using Hoechst staining and mCherry intensity was detected to measure CYP1A1 expression.
# CYP1A1-mCherry HLC = test: Cell viability analysis (cell counting Kit-8); type: cell-based; conditions: working concentration 10 μM, 24 hours, FIG. 10b
# Procedure: 11. Cell Viability Analysis
# To analyze cell viability, target chemicals (10 μM) were treated for 24 hours prior to performing cell viability analysis. Then, 10 μl of cell counting Kit-8 was added to 100 μl of the medium, followed by incubation for 2 hours. Absorbance was measured at 450 nm using an iMark™ microplate absorbance reader (Bio-Rad). Cell viability was calculated using the following formula: Cell viability (%)=(Asample−Ablank)/(Acontrol−Ablank)×100
# CYP1A1 = test: Ethoxyresorufin-O-deethylase (EROD) analysis of CYP1A1 activity in CYP1A1-mCherry HLCs; conditions: for inhibition of the effect of TCDD on CYP1A1 activity: FIG. 10d
# Procedure: Ethoxyresorufin-O-Deetylase (EROD) Analysis
# To measure the CYP1A1 activity, cells were cultured in a serum-free medium for 24 hours before treatment. The cells were treated with 7.5 μM ethoxyresorufin in the presence or absence of 10 μM dicumarol (inhibitor) in HBSS for 7.5, 15, 30 and 60 minutes, and 100 μl of the medium was removed into a new microcentrifuge tube. The same amount (100 μl) of ice-cold acetonitrile-methanol was added to the removed medium, followed by brief vortexing and centrifugation at 16,000×g for 5 minutes at 4° C. The supernatant was used for the following analysis. The level of the metabolite resorufin was measured by high-performance liquid chromatography (HPLC) with a Luna C18 column (4.6×150 mm, 5 μm; Phenomenex, Seoul, Korea). The moving phase was composed of 20 mM phosphate buffer-methanol-acetonitrile (52:45:3, v/v/v), and the flow rate was 0.8 ml/minute. Fluorescence was measured at an excitation wavelength of 560 nm and an emission wavelength of 585 nm. Concentrations were calculated using a standard curve for resorufin normalized by the total cellular protein content measured using a BCA protein analysis kit (Thermo Fisher Scientific).
# mouse AHR = target: T1, mouse AHR (Mus musculus, UniProt P30561); conditions: mouse AHR higher than human AHR; cited from earlier work
# T1 sequence (P30561 10-848): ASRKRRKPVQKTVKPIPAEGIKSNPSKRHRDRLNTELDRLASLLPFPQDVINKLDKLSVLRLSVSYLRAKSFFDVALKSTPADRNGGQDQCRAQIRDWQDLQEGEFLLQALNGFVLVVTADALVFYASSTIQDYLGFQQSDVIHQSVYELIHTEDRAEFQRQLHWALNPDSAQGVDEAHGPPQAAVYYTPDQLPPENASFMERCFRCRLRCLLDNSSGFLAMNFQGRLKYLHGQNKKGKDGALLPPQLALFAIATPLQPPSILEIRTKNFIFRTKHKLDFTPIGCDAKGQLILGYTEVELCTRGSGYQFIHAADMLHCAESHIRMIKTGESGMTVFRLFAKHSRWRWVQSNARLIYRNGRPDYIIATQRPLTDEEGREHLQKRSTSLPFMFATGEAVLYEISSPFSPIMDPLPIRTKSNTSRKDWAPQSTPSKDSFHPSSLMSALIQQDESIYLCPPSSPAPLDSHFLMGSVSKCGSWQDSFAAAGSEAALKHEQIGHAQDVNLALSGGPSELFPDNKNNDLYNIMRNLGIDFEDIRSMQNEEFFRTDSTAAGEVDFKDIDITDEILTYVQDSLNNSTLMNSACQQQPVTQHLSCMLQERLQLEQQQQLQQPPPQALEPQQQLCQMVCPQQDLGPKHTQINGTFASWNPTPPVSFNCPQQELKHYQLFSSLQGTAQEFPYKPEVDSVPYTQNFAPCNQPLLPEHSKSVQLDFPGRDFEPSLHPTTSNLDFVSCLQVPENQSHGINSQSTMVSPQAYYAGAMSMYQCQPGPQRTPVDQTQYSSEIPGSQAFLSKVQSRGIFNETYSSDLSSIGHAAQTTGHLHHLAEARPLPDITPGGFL
smiles,measurement,setting,value
COc1ccc(Cc2nccc3cc(OC)c(OC)cc23)cc1OC [papaverine hydrochloride],concentration of maximal induction,CYP1A1 mRNA,maximal induction at the concentrations used for screening
same,"increase according to the dose (dose-response, CYP1A1 mRNA)",CYP1A1 mRNA; human,6- to 7 fold
"COc1ccc(/C=C/c2cc(OC)cc(=O)o2)cc1 [2-E05, yangonin]",mCherry intensity compared to CH223191 and TMF,AHR-CYP1A1 axis,significant decrease
same,inhibition of the effect of TCDD on mCherry expression,AHR-CYP1A1 axis,at the levels of the non-treated control and CH223191
same,cell death (cell viability),CYP1A1-mCherry HLC,without cell death
same,inhibition of the effect of TCDD on CYP1A1 activity,CYP1A1,at the levels of the non-treated control and CH223191
"COc1cc(/C=C/c2ccccc2)oc(=O)c1 [2-E06, desmethoxyyangonin]",mCherry intensity compared to CH223191 and TMF,AHR-CYP1A1 axis,significant decrease
same,inhibition of the effect of TCDD on mCherry expression,AHR-CYP1A1 axis,at the levels of the non-treated control and CH223191
same,cell death (cell viability),CYP1A1-mCherry HLC,without cell death
same,inhibition of the effect of TCDD on CYP1A1 activity,CYP1A1,at the levels of the non-treated control and CH223191
CC(Cc1ccc(O)c(O)c1)C(C)Cc1ccc(O)c(O)c1 (centres unmarked) [nordihydroguaiaretic acid],"effect according to the dose (dose-response, CYP1A1 mRNA)","CYP1A1 mRNA; human, 24 h",~ 2 times
"Clc1cc2c(cc1Cl)Oc1cc(Cl)c(Cl)cc1O2 [TCDD, 2,3,7,8-tetrachlorodibenzo-p-dioxin]",mCherry intensity after treatment,"AHR-CYP1A1 axis; CYP1A1-mCherry HLC, AHR agonist treatment, FIG. 6a",time-dependent increase
same,affinity of mouse AHR with TCDD compared to human AHR,mouse AHR,10 fold
same,CYP1A1 activity,"CYP1A1; 60 minutes, FIG. 6b",increased
O=C(OCC(O)CO)c1ccccc1Nc1ccnc2cc(Cl)ccc12 (centres unmarked) [glafenine],concentration of maximal induction,CYP1A1 mRNA,maximal induction at the concentrations used for screening
same,"increase according to the dose (dose-response, CYP1A1 mRNA)",CYP1A1 mRNA; human,6- to 7 fold
Cc1ccccc1N=Nc1ccc(NC(=O)c2ccnn2C)c(C)c1 [CH223191],transcript expression levels of CYP1A1 and mCherry,"CYP1A1 mRNA; co-treatment with BaP or TCDD, FIG. 7b",reduced
